Assay results reported in the supplement of paper PMC10307832.

Experiments:
Assay in all cases: relative viability (nuclei count vs DMSO), 5 days (fraction); higher = more cells survive
NCI-H1651 = system: NCI-H1651
Method in brief: (§1)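 Lung cancer cell lines were seeded in 1536-well plates and dosed by pin tool the next day, with either a single drug or a fixed anchor-drug dose combined with five library-drug doses (not always all listed) spaced in √10 steps. Five days later, one step fixed the cells and stained their nuclei (final 0.05% Triton X-100, 1% formaldehyde, 1 ug/ml Hoechst), and nuclei were counted on 4× images. Relative viability is the nuclei count in treated wells divided by the count in vehicle wells, and each value is the median of duplicate plates.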

NCI-H1792 = system: NCI-H1792
Method in brief: as §1

NCI-H727 = system: NCI-H727
Method in brief: as §1

PC-14 = system: PC-14
Method in brief: as §1

NCI-H596 = system: NCI-H596
Method in brief: as §1

NCI-H661 = system: NCI-H661
Method in brief: as §1

NCI-H322M = system: NCI-H322M
Method in brief: as §1

NCI-H460 = system: NCI-H460
Method in brief: as §1

NCI-H1755 = system: NCI-H1755
Method in brief: as §1

LXF-289 = system: LXF-289
Method in brief: as §1

NCI-H3122 = system: NCI-H3122
Method in brief: as §1

NCI-H520 = system: NCI-H520
Method in brief: as §1

RERF-LC-KJ = system: RERF-LC-KJ
Method in brief: as §1

NCI-H441 = system: NCI-H441
Method in brief: as §1

LCLC-103H = system: LCLC-103H
Method in brief: as §1

SK-MES-1 = system: SK-MES-1
Method in brief: as §1

NCI-H2347 = system: NCI-H2347
Method in brief: as §1

NCI-H1355 = system: NCI-H1355
Method in brief: as §1

NCI-H1915 = system: NCI-H1915
Method in brief: as §1

NCI-H1563 = system: NCI-H1563
Method in brief: as §1

SW 900 = system: SW 900
Method in brief: as §1

NCI-H522 = system: NCI-H522
Method in brief: as §1

`CC(=O)O[C@@]12CO[C@@H]1C[C@H](O)[C@@]1(C)C(=O)[C@H](O)C3=C(C)[C@@H](OC(=O)[C@H](O)[C@@H](NC(=O)OC(C)(C)C)c4ccccc4)C[C@@](O)([C@@H](OC(=O)c4ccccc4)[C@H]21)C3(C)C` [Docetaxel] + Cc1nc(Nc2ncc(C(=O)Nc3c(C)cccc3Cl)s2)cc(N2CCN(CCO)CC2)n1 [Dasatinib] (partner 0.075 µM) showed a relative viability (NCI-H1651; first compound 0.0002 µM) of 0.338, a relative viability (NCI-H1651; first compound 0.000632 µM) of 0.236 and a relative viability (NCI-H1651; first compound 0.002 µM) of 0.119. The relative viability (NCI-H1651; first compound 0.006325 µM) was 0.0789, the relative viability (NCI-H1651; first compound 0.02 µM) was 0.0711 and the relative viability (NCI-H1792; first compound 0.0002 µM) was 0.796. For the same molecule, the relative viability (NCI-H1792; first compound 0.000632 µM) was 0.707, the relative viability (NCI-H1792; first compound 0.002 µM) was 0.648 and the relative viability (NCI-H1792; first compound 0.006325 µM) was 0.482. The relative viability (NCI-H1792; first compound 0.02 µM) was 0.22, the relative viability (NCI-H727; first compound 0.0002 µM) was 0.367 and the relative viability (NCI-H727; first compound 0.000632 µM) was 0.326. The relative viability (NCI-H727; first compound 0.002 µM) was 0.272, the relative viability (NCI-H727; first compound 0.006325 µM) was 0.395 and the relative viability (NCI-H727; first compound 0.02 µM) was 0.276. The relative viability (PC-14; first compound 0.0002 µM) was 0.286, the relative viability (PC-14; first compound 0.000632 µM) was 0.188 and the relative viability (PC-14; first compound 0.002 µM) was 0.0514. It also gave a relative viability (PC-14; first compound 0.006325 µM) of 0.0304, a relative viability (PC-14; first compound 0.02 µM) of 0.0231 and a relative viability (NCI-H596; first compound 0.0002 µM) of 0.551. It also gave a relative viability (NCI-H596; first compound 0.000632 µM) of 0.6, a relative viability (NCI-H596; first compound 0.002 µM) of 0.543 and a relative viability (NCI-H596; first compound 0.006325 µM) of 0.397. For the same molecule, the relative viability (NCI-H596; first compound 0.02 µM) was 0.222, the relative viability (NCI-H661; first compound 0.0002 µM) was 0.836 and the relative viability (NCI-H661; first compound 0.000632 µM) was 0.792. For the same molecule, the relative viability (NCI-H661; first compound 0.002 µM) was 0.528, the relative viability (NCI-H661; first compound 0.006325 µM) was 0.395 and the relative viability (NCI-H661; first compound 0.02 µM) was 0.284. The relative viability (NCI-H322M; first compound 0.0002 µM) was 0.242, the relative viability (NCI-H322M; first compound 0.000632 µM) was 0.251 and the relative viability (NCI-H322M; first compound 0.002 µM) was 0.372. The relative viability (NCI-H322M; first compound 0.006325 µM) was 0.406, the relative viability (NCI-H322M; first compound 0.02 µM) was 0.346 and the relative viability (NCI-H460; first compound 0.0002 µM) was 0.457. The relative viability (NCI-H460; first compound 0.000632 µM) was 0.44, the relative viability (NCI-H460; first compound 0.002 µM) was 0.089 and the relative viability (NCI-H460; first compound 0.006325 µM) was 0.0266. The relative viability (NCI-H460; first compound 0.02 µM) was 0.0131, the relative viability (NCI-H1755; first compound 0.0002 µM) was 0.385 and the relative viability (NCI-H1755; first compound 0.000632 µM) was 0.359. For the same molecule, the relative viability (NCI-H1755; first compound 0.002 µM) was 0.306, the relative viability (NCI-H1755; first compound 0.006325 µM) was 0.286 and the relative viability (NCI-H1755; first compound 0.02 µM) was 0.222. It also gave a relative viability (LXF-289; first compound 0.0002 µM) of 0.181, a relative viability (LXF-289; first compound 0.000632 µM) of 0.154 and a relative viability (LXF-289; first compound 0.002 µM) of 0.0677. For the same molecule, the relative viability (LXF-289; first compound 0.006325 µM) was 0.0536, the relative viability (LXF-289; first compound 0.02 µM) was 0.0314 and the relative viability (NCI-H3122; first compound 0.0002 µM) was 0.822. It also gave a relative viability (NCI-H3122; first compound 0.000632 µM) of 0.694, a relative viability (NCI-H3122; first compound 0.002 µM) of 0.508 and a relative viability (NCI-H3122; first compound 0.006325 µM) of 0.102. It also gave a relative viability (NCI-H3122; first compound 0.02 µM) of 0.078, a relative viability (NCI-H520; first compound 0.0002 µM) of 0.186 and a relative viability (NCI-H520; first compound 0.000632 µM) of 0.194. It also gave a relative viability (NCI-H520; first compound 0.002 µM) of 0.164, a relative viability (NCI-H520; first compound 0.006325 µM) of 0.159 and a relative viability (NCI-H520; first compound 0.02 µM) of 0.126. For the same molecule, the relative viability (RERF-LC-KJ; first compound 0.0002 µM) was 0.754, the relative viability (RERF-LC-KJ; first compound 0.000632 µM) was 0.586 and the relative viability (RERF-LC-KJ; first compound 0.002 µM) was 0.295. The relative viability (RERF-LC-KJ; first compound 0.006325 µM) was 0.264, the relative viability (RERF-LC-KJ; first compound 0.02 µM) was 0.155 and the relative viability (NCI-H441; first compound 0.0002 µM) was 0.621. It also gave a relative viability (NCI-H441; first compound 0.000632 µM) of 0.499, a relative viability (NCI-H441; first compound 0.002 µM) of 0.235 and a relative viability (NCI-H441; first compound 0.006325 µM) of 0.224. For the same molecule, the relative viability (NCI-H441; first compound 0.02 µM) was 0.148, the relative viability (LCLC-103H; first compound 0.0002 µM) was 0.34 and the relative viability (LCLC-103H; first compound 0.000632 µM) was 0.456. It also gave a relative viability (LCLC-103H; first compound 0.002 µM) of 0.337, a relative viability (LCLC-103H; first compound 0.006325 µM) of 0.311 and a relative viability (LCLC-103H; first compound 0.02 µM) of 0.19. The relative viability (SK-MES-1; first compound 0.0002 µM) was 0.326, the relative viability (SK-MES-1; first compound 0.000632 µM) was 0.316 and the relative viability (SK-MES-1; first compound 0.002 µM) was 0.19. For the same molecule, the relative viability (SK-MES-1; first compound 0.006325 µM) was 0.167, the relative viability (SK-MES-1; first compound 0.02 µM) was 0.072 and the relative viability (NCI-H2347; first compound 0.0002 µM) was 0.336. It also gave a relative viability (NCI-H2347; first compound 0.000632 µM) of 0.326, a relative viability (NCI-H2347; first compound 0.002 µM) of 0.242 and a relative viability (NCI-H2347; first compound 0.006325 µM) of 0.23. The relative viability (NCI-H2347; first compound 0.02 µM) was 0.241, the relative viability (NCI-H1355; first compound 0.0002 µM) was 0.726 and the relative viability (NCI-H1355; first compound 0.000632 µM) was 0.665. For the same molecule, the relative viability (NCI-H1355; first compound 0.002 µM) was 0.472, the relative viability (NCI-H1355; first compound 0.006325 µM) was 0.314 and the relative viability (NCI-H1355; first compound 0.02 µM) was 0.203. It also gave a relative viability (NCI-H1915; first compound 0.0002 µM) of 0.304, a relative viability (NCI-H1915; first compound 0.000632 µM) of 0.331 and a relative viability (NCI-H1915; first compound 0.002 µM) of 0.228. For the same molecule, the relative viability (NCI-H1915; first compound 0.006325 µM) was 0.153, the relative viability (NCI-H1915; first compound 0.02 µM) was 0.0717 and the relative viability (NCI-H1563; first compound 0.0002 µM) was 0.433. The relative viability (NCI-H1563; first compound 0.000632 µM) was 0.454, the relative viability (NCI-H1563; first compound 0.002 µM) was 0.423 and the relative viability (NCI-H1563; first compound 0.006325 µM) was 0.406. For the same molecule, the relative viability (NCI-H1563; first compound 0.02 µM) was 0.339, the relative viability (SW 900; first compound 0.0002 µM) was 0.612 and the relative viability (SW 900; first compound 0.000632 µM) was 0.218. It also gave a relative viability (SW 900; first compound 0.002 µM) of 0.171, a relative viability (SW 900; first compound 0.006325 µM) of 0.221 and a relative viability (SW 900; first compound 0.02 µM) of 0.127. For the same molecule, the relative viability (NCI-H522; first compound 0.0002 µM) was 0.712, the relative viability (NCI-H522; first compound 0.000632 µM) was 0.866 and the relative viability (NCI-H522; first compound 0.002 µM) was 0.649. It also gave a relative viability (NCI-H522; first compound 0.006325 µM) of 0.672 and a relative viability (NCI-H522; first compound 0.02 µM) of 0.49.
